Experiments:
Caco-2 cell monolayers = experiment: Transcellular permeability of Nile Red across Caco-2 monolayers; assay type: in vitro ADME; settings: 1 hour incubation
Protocol: Transwells were seeded with 3.5×10^4 cells per well and propagated to a monolayer over a 21 day period, during which media in the apical and basolateral wells was changed every other day. Trans-epithelial electrical resistance (TEER) values were monitored until they were >1300Ω. 1 μM of Nile Red polydendron or 1 μM aqueous Nile Red was added to the apical chamber of 4 wells and the basolateral chamber of 4 wells to quantify transport in both Apical to Basolateral (A>B) and Basolateral to Apical (B>A) direction and sampled on an hourly basis over a 4 h time period. Apparent permeability coefficient was then determined by the amount of compound transported over time using the equation: […]
where (dQ/dt) is the amount per time (nmol·sec^−1), A is the surface area of the filter and C0 is the starting concentration of the donor chamber (1 μM).
100 μl of each collected sample was mixed with 900 μl acetone, vortexed, sonicated for 6 minutes and centrifuged at 13300 rpm for 3 minutes. The supernatant was completely dried in a vacuum centrifuge at 30° C. until the dry solid sample was left. This was reconstituted in 150 μl acetonitrile, transferred to a 96-well black walled, flat bottomed plate and measured for fluorescence intensity excitation wavelength 480 nm, emission wavelength 560 nm using a Tecan Genios plate reader (Tecan Magellan, Austria).

Caco-2 cells [1] = experiment: ATP assay (CellTiter-Glo) cytotoxicity; assay type: cell-based
Protocol: (§1) Caco-2 cells were purchased from American Type Culture Collection (ATCC, USA) and maintained in Dulbecco's Modified Eagles Medium (DMEM) supplemented with 15% filtered sterile foetal bovine serum. Cells were incubated at 37° C. and 5% CO2 and were routinely sub-cultured every 4 days when 90% confluent. Cell count and viability was determined using a Countess automated cell counter (Invitrogen).
(§2) Caco-2 cells were seeded at a density of 1.0×10^4 cells/100 μl in DMEM supplemented with 15% FBS into each well of a 96 well plate (Nunclon, Denmark) and incubated at 37° C. and 5% CO2. Cells from 4 separate flasks of biological replicates of each cell type were used (N1-4) to improve statistical power. Media was then aspirated from column 1 and replaced with media containing each polydendron or aqueous Nile Red solution at an equivalent 1 μM Nile Red concentration then diluted 1:1 in media across the plate up to column 11. Column 12 served as a negative control and consisted of media and untreated cells. Following polydendron addition, the plates were incubated for 24 hours or 120 hours at 37° C., 5% CO2 prior to assessment of cytotoxicity.
Following incubation of treated plates for 24 h or 120 h, cells were equilibrated to room temperature for approximately 30 minutes. All but 20 μl of media was removed from each well and 20 μl CellTiter-Glo® (Promega, UK) reagent was added. All reagents were made fresh and in accordance with the manufacturer's instructions. Plates were put on an orbital shaker for 10 minutes to mix contents and allow for stabilisation of luminescence signal. Luminescence was then measured using a Tecan Genios plate reader (Tecan Magellan, Austria).

Caco-2 cells [2] = experiment: MTT assay cytotoxicity; assay type: cell-based
Protocol: as §1, §2
Following incubation of treated plates for 24 h or 120 h, 20 μl of 5 mg ml^−1 MTT reagent was added to each well and incubated for 2 hours. Subsequently, 100 μL MTT lysis buffer (50% N—N-Dimethylformamide in water containing 20% SDS, 2.5% glacial acetic acid and 2.5% hydrochloric acid, pH 4.7) was added to each well to lyse overnight at 37° C., 5% CO2. Following incubation the absorbance of each well was read using a Tecan Genosis plate reader at 560 nm (Tecan Magellan, Austria).

CCN(CC)c1ccc2nc3c4ccccc4c(=O)cc-3oc2c1 [aqueous Nile Red, Nile red]
A > B/B > A ratio (Caco-2 cell monolayers): 3.7140 | effect on ATP presence in Caco-2 cells (Caco-2 cells [1]; 24 hour incubation, compared to untreated cells): ATP presence was not affected | effect on viability of Caco-2 cells (ATP assay) (Caco-2 cells [1]; 120 hour incubation, compared to untreated cells): viability was not affected | EC50, ATP assay (Caco-2 cells [1]; Caco-2 cells, 120 hour incubation, FIG. 9): No EC50 | effect on metabolic turnover of Caco-2 cells (MTT) (Caco-2 cells [2]; 24 hour incubation, compared to untreated cells, range of concentrations investigated): did not affect metabolic turnover | effect on viability of Caco-2 cells (MTT) (Caco-2 cells [2]; 120 hour incubation, range of concentrations investigated): did not affect the viability | EC50, MTT assay (Caco-2 cells [2]; Caco-2 cells, 120 hour incubation, FIG. 7): No EC50

— patent publication US20160159954A1, “POLYDENDRONS” (The Univeristy of Liverpool, priority 2013, published 2016)
